Results from ChEMBL document CHEMBL5053534, “Germacrane sesquiterpenes from leaves of Eupatorium chinense inhibit protein tyrosine phosphatase” (Bioorg Med Chem Lett, 2021).
pIC50: −log10 of the molar value.

Legend:
[1] = molecular target: T1, Tyrosine-protein phosphatase non-receptor type 1 (Homo sapiens, UniProt P18031); assay: Inhibition of human recombinant PTP1B using pNPP as substrate assessed as reduction in p-nitrophenol release incubated for 30 mins by absorbance based analysis
T1 sequence (P18031 whole entry): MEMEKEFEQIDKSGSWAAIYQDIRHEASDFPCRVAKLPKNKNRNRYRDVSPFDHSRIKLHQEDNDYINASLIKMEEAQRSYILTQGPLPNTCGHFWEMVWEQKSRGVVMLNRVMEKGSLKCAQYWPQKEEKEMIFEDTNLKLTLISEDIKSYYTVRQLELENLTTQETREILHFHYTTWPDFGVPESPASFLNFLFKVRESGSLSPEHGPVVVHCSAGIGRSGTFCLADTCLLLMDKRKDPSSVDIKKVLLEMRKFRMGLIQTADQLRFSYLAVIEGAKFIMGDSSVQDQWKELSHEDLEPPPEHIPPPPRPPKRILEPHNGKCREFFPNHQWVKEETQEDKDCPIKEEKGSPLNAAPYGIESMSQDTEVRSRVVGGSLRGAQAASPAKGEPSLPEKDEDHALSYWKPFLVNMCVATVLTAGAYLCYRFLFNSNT

[2] = molecular target: T2, Tyrosine-protein phosphatase non-receptor type 2 (Homo sapiens, UniProt P17706); assay: Inhibition of human recombinant TCPTP using pNPP as substrate assessed as reduction in p-nitrophenol release incubated for 30 mins by absorbance based analysis
T2 sequence (P17706 whole entry): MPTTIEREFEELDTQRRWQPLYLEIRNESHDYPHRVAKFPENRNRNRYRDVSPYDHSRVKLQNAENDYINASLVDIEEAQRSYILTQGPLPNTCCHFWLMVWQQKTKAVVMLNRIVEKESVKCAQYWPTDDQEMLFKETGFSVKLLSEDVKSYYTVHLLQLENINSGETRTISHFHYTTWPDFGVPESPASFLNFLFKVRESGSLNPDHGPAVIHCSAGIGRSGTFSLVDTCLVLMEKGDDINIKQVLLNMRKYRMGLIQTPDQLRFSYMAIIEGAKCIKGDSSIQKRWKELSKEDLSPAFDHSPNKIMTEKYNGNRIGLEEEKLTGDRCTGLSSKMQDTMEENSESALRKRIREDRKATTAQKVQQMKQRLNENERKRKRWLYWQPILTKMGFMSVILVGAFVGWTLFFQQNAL

Structure (SMILES) | pIC50 [1] | pIC50 [2]
C=C1C(=O)O[C@@H]2/C=C(\C)CC/C=C(\C)C[C@@H](OC(=O)/C(=C/CO)CO)[C@@H]12 | < 4.55 | < 4.55
C=C1C(=O)O[C@@H]2/C=C(\C)C[C@H](O)/C=C(\C)C[C@@H](OC(=O)/C(=C\C)COC(C)=O)[C@@H]12 | < 4.60 | < 4.60
C=C1C(=O)O[C@@H]2/C=C(\C)CC/C=C(\C)C[C@@H](OC(=O)/C(=C/C)CO)[C@@H]12 | < 4.54 | < 4.54
C=C1C(=O)O[C@@H]2/C=C(\C)C[C@H](O)/C=C(\C)C[C@@H](OC(=O)/C(=C\C)CO)[C@@H]12 | 4.55 | < 4.55

Other lines, results leading:

pIC50 [1] | pIC50 [2] | Structure (SMILES)
4.96 | 4.60 | C=C1C(=O)O[C@@H]2/C=C(\C)CC/C=C(\C)C[C@@H](OC(=O)/C(=C\C)CO)[C@@H]12
< 4.60 | < 4.60 | C=C1C(=O)O[C@@H]2/C=C(\C)CC/C=C(\CO)C[C@@H](OC(=O)/C(C)=C/C)[C@@H]12
4.60 | < 4.60 | C=C1C(=O)O[C@@H]2/C=C(\C)[C@@H](O)C/C=C(\C)C[C@@H](OC(=O)/C(=C\C)COC(C)=O)[C@@H]12
< 4.60 | < 4.60 | C=C1C(=O)O[C@@H]2/C=C(\C)CC/C=C(\C)C[C@@H](OC(=O)/C(=C/C)COC(C)=O)[C@@H]12
< 4.54 | < 4.54 | C=C1C(=O)O[C@@H]2/C=C(\C)CC/C=C(\C)C[C@@H](OC(=O)/C(=C\COC(C)=O)CO)[C@@H]12
